# Experimental data as given in article PMC12441834, “Highly Potent and Subtype-Selective Sperm-Specific Potassium Channel SLO3 Inhibitors Display High Tissue Exposure in the Murine Female Reproductive Tract” (ACS Pharmacology & Translational Science, 2025).
# Biological target: T1, human SLO3 (Homo sapiens, UniProt A8MYU2)
# T1 construct: expressed in transfected cells
# T1 sequence (A8MYU2 1-1149): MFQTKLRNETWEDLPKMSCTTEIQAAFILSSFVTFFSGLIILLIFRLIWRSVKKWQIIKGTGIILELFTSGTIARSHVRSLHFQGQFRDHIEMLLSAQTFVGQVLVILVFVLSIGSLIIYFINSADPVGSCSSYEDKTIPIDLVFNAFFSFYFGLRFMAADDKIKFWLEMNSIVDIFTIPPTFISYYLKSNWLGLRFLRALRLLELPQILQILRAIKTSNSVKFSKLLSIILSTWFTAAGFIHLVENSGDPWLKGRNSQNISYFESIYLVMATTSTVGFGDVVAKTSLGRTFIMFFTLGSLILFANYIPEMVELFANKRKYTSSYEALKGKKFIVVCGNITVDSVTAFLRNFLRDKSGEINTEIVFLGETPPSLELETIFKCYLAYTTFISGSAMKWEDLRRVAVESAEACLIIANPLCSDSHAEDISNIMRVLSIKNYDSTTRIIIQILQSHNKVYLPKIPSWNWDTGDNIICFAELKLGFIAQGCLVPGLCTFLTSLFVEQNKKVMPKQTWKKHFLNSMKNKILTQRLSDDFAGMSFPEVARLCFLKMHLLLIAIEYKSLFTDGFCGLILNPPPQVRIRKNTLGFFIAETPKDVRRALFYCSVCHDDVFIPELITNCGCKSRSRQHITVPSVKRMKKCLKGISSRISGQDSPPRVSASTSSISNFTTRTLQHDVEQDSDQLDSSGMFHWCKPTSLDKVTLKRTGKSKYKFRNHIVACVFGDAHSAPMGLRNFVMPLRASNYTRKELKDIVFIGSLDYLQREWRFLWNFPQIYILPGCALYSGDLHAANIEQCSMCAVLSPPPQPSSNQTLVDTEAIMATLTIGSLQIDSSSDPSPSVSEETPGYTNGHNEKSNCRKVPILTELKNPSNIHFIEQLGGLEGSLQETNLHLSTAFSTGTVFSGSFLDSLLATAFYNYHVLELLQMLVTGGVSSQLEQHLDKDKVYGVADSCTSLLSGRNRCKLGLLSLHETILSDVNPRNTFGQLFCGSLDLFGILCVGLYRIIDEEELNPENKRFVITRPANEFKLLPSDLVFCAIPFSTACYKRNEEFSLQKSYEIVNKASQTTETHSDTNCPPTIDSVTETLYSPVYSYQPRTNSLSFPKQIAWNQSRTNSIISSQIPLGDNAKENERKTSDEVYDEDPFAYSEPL
# T1 sequence (Q8N7C0 24-313 partner): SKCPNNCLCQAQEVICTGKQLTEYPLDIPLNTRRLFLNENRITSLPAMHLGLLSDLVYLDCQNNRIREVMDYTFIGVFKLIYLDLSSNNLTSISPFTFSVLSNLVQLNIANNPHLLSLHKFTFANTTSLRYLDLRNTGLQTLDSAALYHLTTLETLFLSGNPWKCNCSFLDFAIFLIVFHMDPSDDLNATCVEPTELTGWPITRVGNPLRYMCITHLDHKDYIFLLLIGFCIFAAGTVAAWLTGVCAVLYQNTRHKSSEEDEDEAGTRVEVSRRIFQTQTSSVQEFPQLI
# Assay: SLO3 patch-clamp electrophysiology, human SLO3-γ2 expressed in HEK293 cells
# Assay type: cell-based
# Details: for inhibition at 10 µM: HEK293, read-out: HEK hSLO3 % of inhib. at 10 μM; for IC50: transfected HEK293 cells (human SLO3-γ2), whole-cell patch clamp, currents at +100 mV, read-out: hSLO3 IC50
# Procedure: HEK293 cells were transfected with the bicistronic vector pBUD-CE4.1 containing the genes of interest and a gene conferring antibiotic resistance. Cells were exposed to gradients of selection antibiotics, and optimal growth conditions for the stable lines were as follows: SLO3 and γ2 (SLO3-γ2) supplemented with 700 μg/mL Zeocin (Invitrogen); human SLO1 and β1 (SLO1-β1) with 1 mg/mL G418 (Sigma) and 3 μg/mL puromycin (Corning, Thermo Fisher); and human SLO1 and β4 (SLO1-β4) with 250 μg/mL Zeocin and 3 μg/mL puromycin. All cell lines were grown in Dulbecco’s Modified Eagle Medium (Gibco, Thermo Fisher) supplemented with 10% fetal bovine serum, 1% penicillin–streptomycin (Millipore Sigma), and selection antibiotics. To generate cells expressing SLO1 and γ2, stable SLO1-expressing HEK293 cells were transiently transfected with expression vectors for γ2 and green fluorescent protein (GFP) in the presence of lipofectamine (Invitrogen) for 5 h.
# The cells were then washed and incubated in supplemented Dulbecco’s Modified Eagle Medium for 48 h before use. Patch-clamp electrophysiology was performed only on cells expressing GFP.
# Currents in HEK293 cells were measured in the whole-cell patch-clamp configuration with an Axopatch 200B amplifier, digitized with a Digidata 1440A, and interfaced with Clampex 10.6.0.13 (Molecular Devices). […] An isolated cell was located on an Axiovert 200 microscope (Zeiss), and a gigaohm seal was formed with a borosilicate pipette with resistance between 3 and 6 MΩ and filled with internal solution (140 mM KMeSO3, 10 mM HEPES, 10 mM MES, 1 mM EGTA, pH 7). The seal was then broken by applying a negative pressure. Cells were kept at a holding potential of −60 mV for 50 ms, tested with a stepped voltage protocol from −80 to +150 mV in 10 mV increments for 100 ms, and then dropped to −40 mV for 50 ms with 2.5 s between sweeps. This protocol was used to record currents present with increasing concentration of our compound of interest or 3 μL/mL vehicle (DMSO) in the bath solution. Individual cells were tested with between 1 and 5 concentrations of the compound of interest or until the patch was lost. Currents were allowed to stabilize before the initial recording and after the perfusion solution was changed before recording.
# Data were analyzed with a pClamp 10.6 (Molecular Devices). VU6047606 and VU6032735 inhibition dose–response relationships were fit by the Hill equation in OriginPro 7.5 (OriginLab Corporation): R=1/1+(C/IC50)^n+Ioff , in which R is fractional unblock, C is compound concentration, IC50 is the half inhibition concentration, n is the Hill coefficient, and I off is an offset item for leak current. Error bars in the figures represent the SDs. Each data point is averaged from at least 5 measurements. Curve-fitting results are reported as the fitted values with standard error, which was estimated by OriginPro according to the Error Propagation formula.
Compound,inhibition at 10 µM,IC50
O=C(c1ccc(OCc2ccc(OC(F)(F)F)cc2)cc1)N1CCN(c2ccc(C(F)(F)F)cn2)CC1 [VU6032735],100%,165 nM
Cc1cc(Cl)cc2sc(OC3CCN(C(=O)CCCS(=O)(=O)c4cccc(Br)c4)CC3F)nc12 (centres unmarked) [VU6045330],–,135 nM
Cc1cc(Cl)cc2sc(O[C@H]3CCN(C(=O)CCCS(=O)(=O)c4cccc(Br)c4)C[C@H]3F)nc12 [VU6047606],100%,43 nM
Cc1cc(Cl)cc2sc(O[C@@H]3CCN(C(=O)CCCS(=O)(=O)c4cccc(Br)c4)C[C@H]3F)nc12 [VU6047607],–,457 nM
Cc1cc(Cl)cc2sc(O[C@@H]3CCN(C(=O)CCCS(=O)(=O)c4cccc(Br)c4)C[C@@H]3F)nc12 [VU6047608],–,583 nM
Cc1cc(Cl)cc2sc(O[C@H]3CCN(C(=O)CCCS(=O)(=O)c4cccc(Br)c4)C[C@@H]3F)nc12 [VU6047609],–,112 nM
